Source: the NIST ThermoML archive (doi:10.1016/j.jct.2014.09.011)

Test: mn = molality of the nth substance listed, in mol/kg
Conditions: 101.3 kPa, Liquid; for speed of sound: Frequency=2 MHz, Linear variable-path acoustic interferometer; for mass density: Pycnometric method

C=C[C@H]1CN2CC[C@H]1C[C@H]2[C@H](O)c1ccnc2ccc(OC)cc12.Cl [quinine hydrochloride] + O
Conditions	mass density [kg/m3]	speed of sound [m/s]
278.15 K, m1 = 0.0127	1001.09	1429.3
278.15 K, m1 = 0.0177	1001.51	1430.5
278.15 K, m1 = 0.0225	1001.92	1431.7
278.15 K, m1 = 0.0287	1002.46	1433.3
278.15 K, m1 = 0.0332	1002.86	1434.4
278.15 K, m1 = 0.0402	1003.44	1436.2
278.15 K, m1 = 0.048	1004.11	1438.1
278.15 K, m1 = 0.0603	1005.15	1441.1
278.15 K, m1 = 0.0653	1005.57	1442.4
278.15 K, m1 = 0.0698	1005.93	1443.5
278.15 K, m1 = 0.0798	1006.76	1446
278.15 K, m1 = 0.09	1007.59	1448.5
278.15 K, m1 = 0.0987	1008.29	1450.7
288.15 K, m1 = 0.0106	1000.01	1468.3
288.15 K, m1 = 0.0163	1000.5	1469.6
288.15 K, m1 = 0.022	1000.99	1470.9
288.15 K, m1 = 0.0294	1001.64	1472.5
288.15 K, m1 = 0.0361	1002.19	1474
288.15 K, m1 = 0.0396	1002.48	1474.8
288.15 K, m1 = 0.0491	1003.28	1477
288.15 K, m1 = 0.0552	1003.79	1478.3
288.15 K, m1 = 0.0598	1004.17	1479.3
288.15 K, m1 = 0.0687	1004.9	1481.4
288.15 K, m1 = 0.0785	1005.7	1483.6
288.15 K, m1 = 0.0881	1006.49	1485.7
288.15 K, m1 = 0.1019	1007.59	1488.8
298.15 K, m1 = 0.0109	997.96	1499.2
298.15 K, m1 = 0.0125	998.1	1499.4
298.15 K, m1 = 0.0199	998.7	1501.1
298.15 K, m1 = 0.0248	999.09	1502.2
298.15 K, m1 = 0.0286	999.45	1502.9
298.15 K, m1 = 0.0378	1000.17	1504.9
298.15 K, m1 = 0.0473	1000.94	1506.9
298.15 K, m1 = 0.0544	1001.52	1508.5
298.15 K, m1 = 0.0594	1001.93	1509.4
298.15 K, m1 = 0.0677	1002.6	1511.4
298.15 K, m1 = 0.0785	1003.46	1513.7
298.15 K, m1 = 0.0881	1004.22	1515.8
298.15 K, m1 = 0.0987	1005.05	1518.1

O [water] + C=C[C@H]1CN2CC[C@H]1C[C@H]2[C@H](O)c1ccnc2ccc(OC)cc12.Cl
278.15 K, m2 = 0
Conditions	mass density [kg/m3]	speed of sound [m/s]
–	999.96	1426.2

O=C(O)[C@]1(O)C[C@@H](O)[C@@H](O)[C@H](O)C1 + O
Conditions	mass density [kg/m3]	speed of sound [m/s]
278.15 K, m1 = 0.01	1000.73	1427.1
278.15 K, m1 = 0.0198	1001.5	1428.1
278.15 K, m1 = 0.0299	1002.27	1429.2
278.15 K, m1 = 0.0374	1002.84	1429.9
278.15 K, m1 = 0.0405	1003.09	1430.2
278.15 K, m1 = 0.0441	1003.35	1430.6
278.15 K, m1 = 0.0492	1003.74	1431
278.15 K, m1 = 0.0601	1004.55	1432.1
278.15 K, m1 = 0.0634	1004.82	1432.4
278.15 K, m1 = 0.072	1005.45	1433.3
278.15 K, m1 = 0.0815	1006.18	1434.3
278.15 K, m1 = 0.0892	1006.75	1435
278.15 K, m1 = 0.1001	1007.56	1436.1
288.15 K, m1 = 0.0096	999.82	1466.7
288.15 K, m1 = 0.0238	1000.89	1467.9
288.15 K, m1 = 0.0297	1001.32	1468.4
288.15 K, m1 = 0.0362	1001.8	1468.9
288.15 K, m1 = 0.0403	1002.1	1469.3
288.15 K, m1 = 0.0447	1002.43	1469.6
288.15 K, m1 = 0.0489	1002.74	1470
288.15 K, m1 = 0.0542	1003.11	1470.4
288.15 K, m1 = 0.061	1003.63	1471
288.15 K, m1 = 0.0683	1004.16	1471.6
288.15 K, m1 = 0.0795	1004.98	1472.5
288.15 K, m1 = 0.0869	1005.52	1473.1
288.15 K, m1 = 0.0992	1006.4	1474.2
298.15 K, m1 = 0.0096	997.74	1497.4
298.15 K, m1 = 0.0199	998.49	1498.3
298.15 K, m1 = 0.0254	998.89	1498.7
298.15 K, m1 = 0.0304	999.25	1499.1
298.15 K, m1 = 0.0385	999.83	1499.7
298.15 K, m1 = 0.0415	1000.05	1500
298.15 K, m1 = 0.0493	1000.6	1500.6
298.15 K, m1 = 0.0542	1000.95	1501
298.15 K, m1 = 0.061	1001.46	1501.5
298.15 K, m1 = 0.0716	1002.18	1502.4
298.15 K, m1 = 0.0786	1002.68	1502.9
298.15 K, m1 = 0.0869	1003.27	1503.6
298.15 K, m1 = 0.1007	1004.22	1504.7

O [water] + O=C(O)[C@]1(O)C[C@@H](O)[C@@H](O)[C@H](O)C1
278.15 K, m2 = 0
Conditions	mass density [kg/m3]	speed of sound [m/s]
–	999.96	1426.2

Cl.N=C(N)N [guanidine hydrochloride] + O
Conditions	mass density [kg/m3]	speed of sound [m/s]
278.15 K, m1 = 0.0101	1000.29	1427
278.15 K, m1 = 0.0162	1000.5	1427.5
278.15 K, m1 = 0.0196	1000.61	1427.8
278.15 K, m1 = 0.0227	1000.7	1428
278.15 K, m1 = 0.0291	1000.91	1428.5
278.15 K, m1 = 0.039	1001.25	1429.3
278.15 K, m1 = 0.0501	1001.58	1430.3
278.15 K, m1 = 0.0586	1001.85	1431
278.15 K, m1 = 0.0619	1001.96	1431.2
278.15 K, m1 = 0.0685	1002.17	1431.8
278.15 K, m1 = 0.0807	1002.54	1432.8
278.15 K, m1 = 0.0882	1002.78	1433.4
278.15 K, m1 = 0.0981	1003.08	1434.2
288.15 K, m1 = 0.0102	999.41	1466.6
288.15 K, m1 = 0.0201	999.7	1467.3
288.15 K, m1 = 0.0267	999.9	1467.8
288.15 K, m1 = 0.0297	999.98	1468
288.15 K, m1 = 0.0387	1000.25	1468.6
288.15 K, m1 = 0.0437	1000.41	1469
288.15 K, m1 = 0.0502	1000.59	1469.4
288.15 K, m1 = 0.0598	1000.86	1470.1
288.15 K, m1 = 0.0634	1000.97	1470.4
288.15 K, m1 = 0.0697	1001.15	1470.8
288.15 K, m1 = 0.0798	1001.43	1471.5
288.15 K, m1 = 0.0926	1001.79	1472.4
288.15 K, m1 = 0.1009	1002.03	1473
298.15 K, m1 = 0.0101	997.34	1497.4
298.15 K, m1 = 0.0162	997.52	1497.8
298.15 K, m1 = 0.0196	997.61	1497.9
298.15 K, m1 = 0.0267	997.81	1498.4
298.15 K, m1 = 0.0299	997.9	1498.6
298.15 K, m1 = 0.0349	998.05	1498.9
298.15 K, m1 = 0.0401	998.17	1499.2
298.15 K, m1 = 0.0515	998.5	1499.9
298.15 K, m1 = 0.0586	998.7	1500.4
298.15 K, m1 = 0.0705	999.01	1501.2
298.15 K, m1 = 0.0807	999.29	1501.8
298.15 K, m1 = 0.0926	999.61	1502.5
298.15 K, m1 = 0.1009	999.84	1503

O [water] + Cl.N=C(N)N
278.15 K, m2 = 0
Conditions	mass density [kg/m3]	speed of sound [m/s]
–	999.96	1426.2
